According to ChEMBL document CHEMBL4145694 (J Med Chem, 2018):
Calls of active or inactive are those of the source. The rule behind the calls is not given here.

Key:
[1] = molecular target: Kappa-type opioid receptor (Homo sapiens) (UniProt P41145); experiment: Agonist activity at human kappa-opioid receptor expressed in CHO cell membranes assessed as stimulation of [35S]GTPgammaS binding at 10 uM incubated for 60 mins by scintillation counting method; format: functional
[2] = molecular target: Delta-type opioid receptor (Homo sapiens) (UniProt P41143); experiment: Agonist activity at human delta-opioid receptor expressed in CHO cell membranes assessed as stimulation of [35S]GTPgammaS binding at 10 uM incubated for 60 mins by scintillation counting method; format: functional
Delta-type opioid receptor (Homo sapiens), sequence (P41143 whole entry): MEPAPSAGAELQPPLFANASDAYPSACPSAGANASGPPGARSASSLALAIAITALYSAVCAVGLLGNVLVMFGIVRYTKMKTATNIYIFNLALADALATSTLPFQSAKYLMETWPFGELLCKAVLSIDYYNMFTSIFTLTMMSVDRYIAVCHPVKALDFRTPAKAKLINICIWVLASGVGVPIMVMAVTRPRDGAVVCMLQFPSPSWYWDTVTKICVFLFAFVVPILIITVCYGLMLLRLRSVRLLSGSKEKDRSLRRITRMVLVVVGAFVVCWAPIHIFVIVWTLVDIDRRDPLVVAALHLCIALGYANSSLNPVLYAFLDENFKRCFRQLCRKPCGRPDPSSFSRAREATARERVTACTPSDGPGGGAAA

[3] = molecular target: Mu-type opioid receptor (Homo sapiens) (UniProt P35372); experiment: Agonist activity at human mu-opioid receptor expressed in CHO cell membranes assessed as stimulation of [35S]GTPgammaS binding at 10 uM incubated for 60 mins by scintillation counting method; format: functional
Mu-type opioid receptor (Homo sapiens), sequence (P35372 whole entry): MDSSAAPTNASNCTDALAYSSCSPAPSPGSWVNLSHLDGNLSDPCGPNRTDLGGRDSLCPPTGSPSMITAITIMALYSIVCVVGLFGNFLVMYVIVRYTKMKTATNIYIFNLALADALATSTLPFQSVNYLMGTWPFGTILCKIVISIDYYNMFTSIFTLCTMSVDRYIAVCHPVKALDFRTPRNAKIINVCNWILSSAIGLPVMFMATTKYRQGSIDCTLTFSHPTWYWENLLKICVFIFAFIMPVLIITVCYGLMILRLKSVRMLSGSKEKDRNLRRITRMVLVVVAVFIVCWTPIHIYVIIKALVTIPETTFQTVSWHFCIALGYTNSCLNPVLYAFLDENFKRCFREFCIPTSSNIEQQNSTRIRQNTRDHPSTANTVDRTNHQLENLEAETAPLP

Homo sapiens [4] = species on record: Homo sapiens; experiment: Selectivity index, ratio of Ke for antagonist activity at human mu-opioid receptor expressed in CHO cell membranes to Ke for antagonist activity at human kappa-opioid receptor expressed in CHO cell membranes; format: cell-based
[5] = molecular target: Kappa-type opioid receptor (Homo sapiens) (UniProt P41145); experiment: Antagonist activity at human kappa-opioid receptor expressed in CHO cell membranes assessed as inhibition of U69593-induced [35S]GTPgammaS binding incubated for 60 mins by scintillation counting method; format: functional
[6] = molecular target: Mu-type opioid receptor (Homo sapiens) (UniProt P35372); experiment: Antagonist activity at human mu-opioid receptor expressed in CHO cell membranes assessed as inhibition of DAMGO-induced [35S]GTPgammaS binding incubated for 60 mins by scintillation counting method; format: functional
[7] = Ratio of AUClast in brain to plasma of Sprague-Dawley CD rat at 5 mg/kg, sc administered as single dose measured over 1 to 168 hrs post dose by LC/MS-MS method; format: ADME, organism-based; settings: Sprague-Dawley CD, brain and plasma, read-out: BPR
[8] = molecular target: Delta-type opioid receptor (Homo sapiens) (UniProt P41143); experiment: Antagonist activity at human delta-opioid receptor expressed in CHO cell membranes assessed as inhibition of DPDPE-induced [35S]GTPgammaS binding incubated for 60 mins by scintillation counting method; format: functional
Homo sapiens [9] = species on record: Homo sapiens; experiment: Selectivity index, ratio of Ke for antagonist activity at human delta-opioid receptor expressed in CHO cell membranes to Ke for antagonist activity at human kappa-opioid receptor expressed in CHO cell membranes; format: cell-based

Kappa-type opioid receptor (Homo sapiens), sequence (P41145 whole entry): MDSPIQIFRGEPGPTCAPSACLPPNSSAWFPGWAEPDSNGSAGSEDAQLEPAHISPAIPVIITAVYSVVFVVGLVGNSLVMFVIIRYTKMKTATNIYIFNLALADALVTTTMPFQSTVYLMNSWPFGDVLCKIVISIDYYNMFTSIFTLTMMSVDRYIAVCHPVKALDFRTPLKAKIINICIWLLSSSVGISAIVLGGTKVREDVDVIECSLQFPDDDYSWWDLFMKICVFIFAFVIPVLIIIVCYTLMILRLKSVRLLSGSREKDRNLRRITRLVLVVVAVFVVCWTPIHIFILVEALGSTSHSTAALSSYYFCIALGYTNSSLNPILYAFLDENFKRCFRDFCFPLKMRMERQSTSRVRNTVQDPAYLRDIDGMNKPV

| Activity [1] | Activity [2] | Activity [3] | Ke [8] | SMILES | Ratio Ke (Homo sapiens [4]) | Ke [5] | Ke [6] | Kp [7] | Ratio Ke (Homo sapiens [9]) |
| --- | --- | --- | --- | --- | --- | --- | --- | --- | --- |
| inactive | inactive | inactive |  | CC1CCN(C[C@@H](NC(=O)[C@H]2Cc3ccc(O)cc3CN2)C2CC2)CC1 |  |  |  |  |  |
| inactive | inactive | inactive |  | CC1=C(C)CN(C[C@@H](NC(=O)[C@H]2Cc3ccc(O)cc3CN2)C(C)C)CC1 |  |  |  |  |  |
| inactive | inactive | inactive |  | CC1CCN(C[C@@H](NC(=O)c2ccc3cc(O)ccc3c2)C(C)C)CC1 |  |  |  |  |  |
| inactive | inactive | inactive |  | CCCN(CCC)C[C@@H](NC(=O)[C@H]1Cc2ccc(O)cc2CN1)C(C)C |  |  |  |  |  |
| inactive | inactive | inactive | > 3000 nM | CC1CCN(C[C@@H](NC(=O)[C@@H]2Cc3ccc(O)cc3CN2)C(C)C)CC1 |  |  |  |  |  |
| inactive | inactive | inactive |  | O=C(NCCN1CCCCC1)[C@H]1Cc2ccc(O)cc2CN1 |  |  |  |  |  |
| inactive | inactive | inactive |  | CC(C)[C@@H](CN1CCCC1)NC(=O)[C@H]1Cc2ccc(O)cc2CN1 |  |  |  |  |  |
| inactive | inactive | inactive |  | CC(C)[C@@H](CN1CC=CCC1)NC(=O)[C@H]1Cc2ccc(O)cc2CN1 |  |  |  |  |  |
| inactive | inactive | inactive |  | CC(C)[C@@H](CN1CCCCC1=O)NC(=O)[C@H]1Cc2ccc(O)cc2CN1 |  |  |  |  |  |
| inactive | inactive | inactive |  | CC1CC(C)CN(C[C@@H](NC(=O)[C@H]2Cc3ccc(O)cc3CN2)C(C)C)C1 (stereo not given in full) |  |  |  |  |  |
| inactive | inactive | inactive |  | CC1CCCN(C[C@@H](NC(=O)[C@H]2Cc3ccc(O)cc3CN2)C(C)C)C1 (mixture of isomers) |  |  |  |  |  |
| inactive | inactive | inactive | > 3000 nM | CC1CCN(C[C@H](NC(=O)[C@H]2Cc3ccc(O)cc3CN2)C(C)C)CC1 |  |  |  |  |  |
| inactive | inactive | inactive | > 3000 nM | CC1CCN(C[C@H](NC(=O)[C@@H]2Cc3ccc(O)cc3CN2)C(C)C)CC1 |  |  |  |  |  |
| inactive | inactive | inactive |  | CC(C)[C@@H](CN1CC[C@H](C)[C@@H](C)C1)NC(=O)[C@H]1Cc2ccc(O)cc2CN1 (mixture of isomers) |  |  |  |  |  |
| inactive | inactive | inactive |  | CC1=CCCN(C[C@@H](NC(=O)[C@H]2Cc3ccc(O)cc3CN2)C(C)C)C1 |  |  |  |  |  |
| inactive | inactive | inactive |  | CC1=CCN(C[C@@H](NC(=O)[C@H]2Cc3ccc(O)cc3CN2)C(C)C)CC1 |  |  |  |  |  |

The next lines start with the molecule.

| SMILES | Activity [1] | Activity [2] | Activity [3] | Ke [8] | Ratio Ke (Homo sapiens [4]) | Ke [5] | Ke [6] | Kp [7] | Ratio Ke (Homo sapiens [9]) |
| --- | --- | --- | --- | --- | --- | --- | --- | --- | --- |
| COC1CCN(C[C@@H](NC(=O)[C@H]2Cc3ccc(O)cc3CN2)C(C)C)CC1 | inactive | inactive | inactive |  | 30 | 6.53 nM | 198 nM |  |  |
| CC(C)[C@@H](CN1CC[C@@](C)(c2cccc(O)c2)[C@@H](C)C1)NC(=O)[C@H]1Cc2ccc(O)cc2CN1 [JDTIC] |  |  |  |  |  |  |  | 7 |  |
| CC(C)[C@@H](CN1CCC(C(F)F)CC1)NC(=O)[C@H]1Cc2ccc(O)cc2CN1 | inactive | inactive | inactive |  |  | 3.45 nM | 70.9 nM |  |  |
| CC(C)[C@@H](CN1CCC(C#N)CC1)NC(=O)[C@H]1Cc2ccc(O)cc2CN1 | inactive | inactive | inactive |  | 51 | 12.7 nM | 647 nM |  |  |
| CC1CCN(C[C@@H](NC(=O)[C@@H]2CCc3cc(O)ccc3C2)C(C)C)CC1 | inactive | inactive | inactive |  |  |  |  |  |  |
| CC(C)[C@@H](CN1CCCCCC1)NC(=O)[C@H]1Cc2ccc(O)cc2CN1 | inactive | inactive | inactive |  |  |  |  |  |  |
| CC(C)[C@@H](CN1CCCCC1)NC(=O)[C@H]1Cc2ccc(O)cc2CN1 | inactive | inactive | inactive |  |  |  |  |  |  |
| CC(C)[C@@H](CN1CCC(N(C)C)CC1)NC(=O)[C@H]1Cc2ccc(O)cc2CN1 | inactive | inactive | inactive |  | 39 | 8.08 nM | 318 nM |  |  |
| CC(C)[C@@H](CN1CC[C@@](C)(c2cccc(O)c2)[C@@H](C)C1)NC(=O)[C@H]1Cc2ccc(O)cc2CN1C |  |  |  |  | 1310 |  |  |  | 3070 |
| CC1CCN(C[C@@H](NC(=O)[C@H](N)Cc2ccc(O)cc2)C(C)C)CC1 | inactive | inactive | inactive |  |  |  |  |  |  |
| CC(C)[C@@H](CN1CCOCC1)NC(=O)[C@H]1Cc2ccc(O)cc2CN1 | inactive | inactive | inactive |  |  | 396 nM |  |  |  |
| CC(C)[C@@H](CN1CC[C@@H](C)[C@@H](C)C1)NC(=O)[C@H]1Cc2ccc(O)cc2CN1 (mixture of isomers) | inactive | inactive | inactive |  |  |  |  |  |  |
| CCC1CCN(C[C@@H](NC(=O)[C@H]2Cc3ccc(O)cc3CN2)C(C)C)CC1 | inactive | inactive | inactive | 2490 nM | 30 | 2.48 nM | 74.8 nM |  | 1000 |
| CCN(CC)C[C@@H](NC(=O)[C@H]1Cc2ccc(O)cc2CN1)C(C)C | inactive | inactive | inactive |  | 16.5 |  |  |  |  |
| CC(C)CN(CC(C)C)C[C@@H](NC(=O)[C@H]1Cc2ccc(O)cc2CN1)C(C)C | inactive | inactive | inactive |  |  | 137 nM |  |  |  |
| CC1CCN(C[C@@H](NC[C@H]2Cc3ccc(O)cc3CN2)C(C)C)CC1 | inactive | inactive | inactive |  |  |  |  |  |  |
| CC(C)[C@@H](CN1CCC(C)(C)CC1)NC(=O)[C@H]1Cc2ccc(O)cc2CN1 | inactive | inactive | inactive | 847 nM | 40 |  | 142 nM |  | > 237 |
| CC(C)[C@@H](CN1CCC(F)(F)CC1)NC(=O)[C@H]1Cc2ccc(O)cc2CN1 | inactive | inactive | inactive |  | 51 | 11.8 nM | 604 nM |  |  |
| CC(C)[C@@H](CN1CCC(C(N)=O)CC1)NC(=O)[C@H]1Cc2ccc(O)cc2CN1 | inactive | inactive | inactive |  | 40 | 3.22 nM | 129 nM |  |  |
| CC(C)[C@@H](CN1CCN(C)CC1)NC(=O)[C@H]1Cc2ccc(O)cc2CN1 | inactive | inactive | inactive |  | 9 | 98.8 nM | 915 nM |  |  |
| CC(C)[C@@H](CN1CCC(C(F)(F)F)CC1)NC(=O)[C@H]1Cc2ccc(O)cc2CN1 | inactive | inactive | inactive |  | 14 | 4.69 nM | 67.9 nM |  |  |
| CC(C)[C@@H](CN1CCCCC1C)NC(=O)[C@H]1Cc2ccc(O)cc2CN1 (mixture of isomers) | inactive | inactive | inactive |  | 3 | 15.1 nM | 44.9 nM |  |  |
| CC(C)[C@@H](CN1C2CCC1CC2)NC(=O)[C@H]1Cc2ccc(O)cc2CN1 | inactive | inactive | inactive |  |  |  |  |  |  |
